Values of other authors, collected in US20230165895A1, “COMPOSITIONS AND METHODS FOR EYE HEAL TH COMPRISING AREDS AND VITAMIN B COMPLEX” (BAUSCH + LOMB IRELAND LIMITED, priority 2020, published 2023).

Settings: no test, species or source described; stated next to the RDA

Cc1c(C)c2c(c(C)c1O)CC[C@@](C)(CCC[C@H](C)CCC[C@H](C)CCCC(C)C)O2 [vitamin E, alpha tocopherol]
levels at which no adverse effects have been observed: ≤ 800.0 mg
